{"source": "patent US5378700A", "about": "“Fused pyrimidine derivative, process for preparation of same and pharmaceutical preparation comprising same as active ingredient” (Teijin Limited, priority 1989, dated 1995)", "assay_type_in_all_cases": "in vivo, Male Wistar strain rats", "key": {"[1]": {"test_system": "hypoxemia model animals (carbon powder)", "assay": "Effect on partial pressure of gases in arterial blood, intravenous, Method A (carbon powder induced hypoxemia)", "settings": "intravenous 0.1 mg/kg/min, 10 min, after minus before administration", "method": "(§1) Example 75: Effect on Partial Pressure Value of Gases in Arterial Blood (Intravenous Injection System)\nMale Wistar strain rats (body weight about 300 g) were anesthetized intra-peritonealy with urethane, and a cannula was inserted into the respiratory tract and the femoral artery, respectively. A suspension (30-100 μm, 10 mg/ml) of carbon powder in a corn oil was intratrachealy injected to induce a hypoxemia state (PaO2 : 50-60 mmHg). A compound in the present invention was continuously injected into these hypoxemia model animals intravenously (0.1 mg/kg/min, 10 min), and then a partial pressure value of gases (PaO2, PaCO2) in arterial blood was immediately determined."}, "[2]": {"test_system": "hypoxemia model animals (acetic acid)", "assay": "Effect on partial pressure of gases in arterial blood, intravenous, Method B (acetic acid induced hypoxemia)", "settings": "2.0% acetic acid, intravenous 0.1 mg/kg/min, 10 min, after minus before administration", "method": "as §1\nMale Wistar strain rats (body weight about 300 g) were anesthetized with halothane inhalant, and then 2.0% acetic acid was intratrachealy injected at 0.6 ml/kg to induce a respiratory insufficiency. The animals were intraperitonealy anesthetized with urethane-α-chloralose, and a cannula was inserted into the femoral artery. After the hypoxemic state (PaO2 : 60-70 mmHg) was observed a compound in accordance with the present invention (test substance) was continuously injected into these hypoxemia model animals intravenously (0.1 mg/kg/min, 10 min), and then a partial pressure value of gases (PaO2, PaCO2) in arterial blood was immediately determined."}, "[3]": {"test_system": "hypoxemia state (acetic acid)", "assay": "Effect on partial pressure of gases in arterial blood, oral administration (acetic acid induced hypoxemia)", "settings": "2.0% acetic acid, 60 min after administration", "method": "Example 76: Effect on Partial Pressure Value of Gases in Arterial Blood (Oral Administration System)\nMale Wistar strain rats (body weight about 250 g) fasted overnight were anesthetized with halothane inhalant, and then a cannula was inserted into the femoral artery. After the animals recovered from the anesthesia, they were again anesthetized with halothane inhalant, and then 2.0% acetic acid was intratrachealy injected at 0.8 ml/kg to induce a hypoxemia state. After the hypoxemic state was observed over about 60 min., a compound in accordance with the present invention (test substance) was orally administered to the animals. On 60 min. after the administration, the partial pressure value of gases (PaO2, PaCO2) in arterial blood was determined."}}, "data": [{"smiles": "C=C(C)CNc1nc2c(c(N3CCN(C(c4ccc(F)cc4)c4ccc(F)cc4)CC3)n1)CCCN2", "note": "[Compound 112]", "values": [{"measurement": "PaCO2 Decreasing Activity ΔPaCO2", "setting": "[1]", "result": -2.0, "unit": "mmHg"}, {"measurement": "PaO2 Increasing Activity ΔPaO2", "setting": "[1]", "result": "+4.6 mmHg"}]}, {"smiles": "C=CCNc1nc(NCC=C)c2c(n1)N(C)CCC2", "note": "[Compound 121]", "values": [{"measurement": "PaCO2 Decreasing Activity ΔPaCO2", "setting": "[2]", "result": -1.2, "unit": "mmHg"}, {"measurement": "PaO2 Increasing Activity ΔPaO2", "setting": "[2]", "result": "+15.9 mmHg"}, {"measurement": "PaCO2 Decreasing Activity ΔPaCO2", "setting": "[3]", "result": "+ (-3--6 mmHg)"}, {"measurement": "PaO2 Increasing Activity ΔPaO2", "setting": "[3]", "result": "++ (+6-+9 mmHg)"}]}, {"smiles": "C=CCNc1nc2c(c(N3CCCC3)n1)CCCN2CC=C", "note": "[Compound 143]", "values": [{"measurement": "PaCO2 Decreasing Activity ΔPaCO2", "setting": "[2]", "result": -0.7, "unit": "mmHg"}, {"measurement": "PaO2 Increasing Activity ΔPaO2", "setting": "[2]", "result": "+8.1 mmHg"}, {"measurement": "PaCO2 Decreasing Activity ΔPaCO2", "setting": "[3]", "result": "± (0--3 mmHg)"}, {"measurement": "PaO2 Increasing Activity ΔPaO2", "setting": "[3]", "result": "+ (+3-+6 mmHg)"}]}, {"smiles": "C=CCNc1nc2c(c(N3CCCCC3)n1)CCCN2CC=C", "note": "[Compound 145]", "values": [{"measurement": "PaCO2 Decreasing Activity ΔPaCO2", "setting": "[2]", "result": -0.8, "unit": "mmHg"}, {"measurement": "PaO2 Increasing Activity ΔPaO2", "setting": "[2]", "result": "+11.2 mmHg"}, {"measurement": "PaCO2 Decreasing Activity ΔPaCO2", "setting": "[3]", "result": "± (0--3 mmHg)"}, {"measurement": "PaO2 Increasing Activity ΔPaO2", "setting": "[3]", "result": "+ (+3-+6 mmHg)"}]}, {"smiles": "C=CCNc1nc2c(c(N3CCC(c4ccccc4)CC3)n1)CCCN2CC=C", "note": "[Compound 146]", "values": [{"measurement": "PaCO2 Decreasing Activity ΔPaCO2", "setting": "[2]", "result": "+2.5 mmHg"}, {"measurement": "PaO2 Increasing Activity ΔPaO2", "setting": "[2]", "result": "+6.6 mmHg"}]}, {"smiles": "C=CCNc1nc2c(c(N3CCCCCC3)n1)CCCN2CC=C", "note": "[Compound 153]", "values": [{"measurement": "PaCO2 Decreasing Activity ΔPaCO2", "setting": "[2]", "result": -0.9, "unit": "mmHg"}, {"measurement": "PaO2 Increasing Activity ΔPaO2", "setting": "[2]", "result": "+10.0 mmHg"}]}, {"smiles": "C=CCNc1nc2c(c(N3CCN(C)CC3)n1)CCCN2CC=C", "note": "[Compound 155]", "values": [{"measurement": "PaCO2 Decreasing Activity ΔPaCO2", "setting": "[2]", "result": "+2.6 mmHg"}, {"measurement": "PaO2 Increasing Activity ΔPaO2", "setting": "[2]", "result": "+6.6 mmHg"}, {"measurement": "PaCO2 Decreasing Activity ΔPaCO2", "setting": "[3]", "result": "+ (-3--6 mmHg)"}, {"measurement": "PaO2 Increasing Activity ΔPaO2", "setting": "[3]", "result": "++ (+6-+9 mmHg)"}]}, {"smiles": "C=CCNc1nc2c(c(N3CCN(C(c4ccc(F)cc4)c4ccc(F)cc4)CC3)n1)CCCN2CC=C", "note": "[Compound 159]", "values": [{"measurement": "PaCO2 Decreasing Activity ΔPaCO2", "setting": "[1]", "result": "+0.4 mmHg"}, {"measurement": "PaO2 Increasing Activity ΔPaO2", "setting": "[1]", "result": "+4.8 mmHg"}]}, {"smiles": "C=CCNc1nc(NCC=C)c2c(n1)N(CC=C)CCC2", "note": "[Compound 168]", "values": [{"measurement": "PaCO2 Decreasing Activity ΔPaCO2", "setting": "[2]", "result": -12.2, "unit": "mmHg"}, {"measurement": "PaO2 Increasing Activity ΔPaO2", "setting": "[2]", "result": "+14.4 mmHg"}]}, {"smiles": "C=CCNc1nc(NCCc2ccccc2)c2c(n1)N(CC=C)CCC2", "note": "[Compound 171]", "values": [{"measurement": "PaCO2 Decreasing Activity ΔPaCO2", "setting": "[2]", "result": -13.4, "unit": "mmHg"}, {"measurement": "PaO2 Increasing Activity ΔPaO2", "setting": "[2]", "result": "+17.4 mmHg"}, {"measurement": "PaCO2 Decreasing Activity ΔPaCO2", "setting": "[3]", "result": "± (0--3 mmHg)"}, {"measurement": "PaO2 Increasing Activity ΔPaO2", "setting": "[3]", "result": "+ (+3-+6 mmHg)"}]}, {"smiles": "C=CCNc1nc(N(C)C)c2c(n1)N(CC=C)CCC2", "note": "[Compound 184]", "values": [{"measurement": "PaCO2 Decreasing Activity ΔPaCO2", "setting": "[2]", "result": -3.2, "unit": "mmHg"}, {"measurement": "PaO2 Increasing Activity ΔPaO2", "setting": "[2]", "result": "+10.4 mmHg"}]}, {"smiles": "C=CCNc1nc(N(C)Cc2ccccc2)c2c(n1)N(CC=C)CCC2", "note": "[Compound 189]", "values": [{"measurement": "PaCO2 Decreasing Activity ΔPaCO2", "setting": "[2]", "result": -7.6, "unit": "mmHg"}, {"measurement": "PaO2 Increasing Activity ΔPaO2", "setting": "[2]", "result": "+16.0 mmHg"}]}, {"smiles": "C=CCNc1nc(SC(C)c2ccccc2)c2c(n1)N(CC=C)CCC2", "note": "(stereo not drawn) [Compound 203]", "values": [{"measurement": "PaCO2 Decreasing Activity ΔPaCO2", "setting": "[2]", "result": -2.1, "unit": "mmHg"}, {"measurement": "PaO2 Increasing Activity ΔPaO2", "setting": "[2]", "result": "+9.5 mmHg"}]}, {"smiles": "C=CCNc1nc(SCCc2ccccc2)c2c(n1)N(CC=C)CCC2", "note": "[Compound 204]", "values": [{"measurement": "PaCO2 Decreasing Activity ΔPaCO2", "setting": "[2]", "result": "+2.2 mmHg"}, {"measurement": "PaO2 Increasing Activity ΔPaO2", "setting": "[2]", "result": "+15.0 mmHg"}]}, {"smiles": "C=CCNc1nc2c(c(N3CCOCC3)n1)CCCN2CC=C", "note": "[Compound 209]", "values": [{"measurement": "PaCO2 Decreasing Activity ΔPaCO2", "setting": "[2]", "result": -2.4, "unit": "mmHg"}, {"measurement": "PaO2 Increasing Activity ΔPaO2", "setting": "[2]", "result": "+7.6 mmHg"}, {"measurement": "PaCO2 Decreasing Activity ΔPaCO2", "setting": "[3]", "result": "+ (-3--6 mmHg)"}, {"measurement": "PaO2 Increasing Activity ΔPaO2", "setting": "[3]", "result": "+ (+3-+6 mmHg)"}]}, {"smiles": "C=CCNc1nc(N2CC=CCC2)c2c(n1)N(CC=C)CCC2", "note": "[Compound 213]", "values": [{"measurement": "PaCO2 Decreasing Activity ΔPaCO2", "setting": "[2]", "result": -2.9, "unit": "mmHg"}, {"measurement": "PaO2 Increasing Activity ΔPaO2", "setting": "[2]", "result": "+10.3 mmHg"}]}, {"smiles": "C=CCNc1nc2c(c(N3CCc4ccccc4C3)n1)CCCN2CC=C", "note": "[Compound 214]", "values": [{"measurement": "PaCO2 Decreasing Activity ΔPaCO2", "setting": "[2]", "result": "+2.2 mmHg"}, {"measurement": "PaO2 Increasing Activity ΔPaO2", "setting": "[2]", "result": "+9.8 mmHg"}]}, {"smiles": "C=CCNc1nc(NCC=C)c2c(n1)N(Cc1ccccc1)CCC2", "note": "[Compound 233]", "values": [{"measurement": "PaCO2 Decreasing Activity ΔPaCO2", "setting": "[2]", "result": -4.0, "unit": "mmHg"}, {"measurement": "PaO2 Increasing Activity ΔPaO2", "setting": "[2]", "result": "+8.6 mmHg"}]}]}
